From patent US8802597B2, “Herbicidal pyrimidines” (E I du Pont de Nemours and Company, priority 2003, dated 2014)

Columns and labels:
Assay type in all cases: in vivo
[1] = test system: water seeded rice seedlings (Oryza sativa cv. ‘Japonica-M202’); assay: Test E flooded paddy water application; conditions: Flood, 21 days, scale 0 to 100 (0 no effect, 100 complete control)
Source text: (§1) Three plastic pots (ca. 16-cm diameter) per rate were partially filled with sterilized Tama silt loam soil comprising a 35:50:15 ratio of sand, silt and clay and 2.6% organic matter. Separate plantings for each of the three pots were as follows. Seeds from the U.S. of ducksalad (Heteranthera limosa), smallflower umbrella sedge (Cyperus difformis) and purple redstem (Ammannia coccinea), were planted into one 16-cm pot for each rate. Seeds from the U.S. of rice flatsedge (Cyperus iria), bearded (brdd.) sprangletop (Leptochloa fusca ssp. fascicularis), one stand of 9 or 10 water seeded rice seedlings (Oryza sativa cv. ‘Japonica-M202’), and one stand of 6 transplanted rice seedlings (Oryza sativa cv. ‘Japonica-M202’) were planted into one 16-cm pot for each rate. Seeds from the U.S. of barnyardgrass (Echinochloa crus-galli), late watergrass (Echinochloa oryzicola), early watergrass (Echinochloa oryzoides) and junglerice (Echinochloa colona) were planted into one 16-cm pot for each rate. Plantings were sequential so that crop and weed species were at the 2.0 to 2.5-leaf stage at time of treatment.
(§2) Potted plants were grown in a greenhouse with day/night temperature settings of 29.5/26.7° C., and supplemental balanced lighting was provided to maintain a 16-hour photoperiod. Test pots were maintained in the greenhouse until test completion.
(§3) At time of treatment, test pots were flooded to 3 cm above the soil surface, treated by application of test compounds directly to the paddy water, and then maintained at that water depth for the duration of the test. Effects of treatments on rice and weeds were visually evaluated by comparison to untreated controls after 21 days. Plant response ratings, summarized in Table E, are based on a scale of 0 to 100 where 0 is no effect and 100 is complete control. A dash (-) response means no test result.

[2] = test system: smallflower umbrella sedge (Cyperus difformis); assay: Test E flooded paddy water application; conditions: Flood, 21 days, scale 0 to 100 (0 no effect, 100 complete control)
Source text: as §1, §2, §3

[3] = test system: bearded (brdd.) sprangletop (Leptochloa fusca ssp. fascicularis); assay: Test E flooded paddy water application; conditions: Flood, 21 days, scale 0 to 100 (0 no effect, 100 complete control)
Source text: as §1, §2, §3

[4] = test system: barnyardgrass (Echinochloa crus-galli); assay: Test E flooded paddy water application; conditions: Flood, 21 days, scale 0 to 100 (0 no effect, 100 complete control)
Source text: as §1, §2, §3

[5] = test system: ducksalad (Heteranthera limosa); assay: Test E flooded paddy water application; conditions: Flood, 21 days, scale 0 to 100 (0 no effect, 100 complete control)
Source text: as §1, §2, §3

[6] = test system: junglerice (Echinochloa colona); assay: Test E flooded paddy water application; conditions: Flood, 21 days, scale 0 to 100 (0 no effect, 100 complete control)
Source text: as §1, §2, §3

[7] = test system: rice flatsedge (Cyperus iria); assay: Test E flooded paddy water application; conditions: Flood, 21 days, scale 0 to 100 (0 no effect, 100 complete control)
Source text: as §1, §2, §3

[8] = test system: early watergrass (Echinochloa oryzoides); assay: Test E flooded paddy water application; conditions: Flood, 21 days, scale 0 to 100 (0 no effect, 100 complete control)
Source text: as §1, §2, §3

[9] = test system: late watergrass (Echinochloa oryzicola); assay: Test E flooded paddy water application; conditions: Flood, 21 days, scale 0 to 100 (0 no effect, 100 complete control)
Source text: as §1, §2, §3

[10] = test system: transplanted rice seedlings (Oryza sativa cv. ‘Japonica-M202’); assay: Test E flooded paddy water application; conditions: Flood, 21 days, scale 0 to 100 (0 no effect, 100 complete control)
Source text: as §1, §2, §3

[11] = test system: purple redstem (Ammannia coccinea); assay: Test E flooded paddy water application; conditions: Flood, 21 days, scale 0 to 100 (0 no effect, 100 complete control)
Source text: as §1, §2, §3

[12] = test system: redroot pigweed (Amaranthus retroflexus); assay: Test A pre/postemergence
Procedure, shortened: (§4)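 Pre/post greenhouse screen; loam/sand soil; solvent + surfactant formulation; pre = directed soil spray at planting, post = 1–2 leaf plants, 2–10 cm; ~10 d; visual 0–100 rating vs untreated.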

[13] = test system: crabgrass (Digitaria sanguinalis); assay: Test A pre/postemergence
Procedure, shortened: as §4

[14] = test system: barnyardgrass (Echinochloa crus-galli); assay: Test A pre/postemergence
Procedure, shortened: as §4

[15] = test system: morningglory (Ipomoea spp.); assay: Test A pre/postemergence
Procedure, shortened: as §4

[16] = test system: velvetleaf (Abutilon theophrasti); assay: Test A pre/postemergence
Procedure, shortened: as §4

[17] = test system: giant foxtail (Setaria faberi); assay: Test A pre/postemergence
Procedure, shortened: as §4

[18] = Postemergence, 125 g ai/ha, 0 to 100 scale (0 no effect, 100 complete control)
[19] = Postemergence, 500 g ai/ha, 0 to 100 scale (0 no effect, 100 complete control)
[20] = Preemergence, 125 g ai/ha, 0 to 100 scale where 0 is no effect and 100 is complete control, approximately ten days
[21] = Preemergence, 500 g ai/ha, 0 to 100 scale where 0 is no effect and 100 is complete control, approximately ten days

## CCOC(=O)c1nc(-c2ccc(Cl)cc2Cl)nc(N)c1Br [Compound 67]
[1]; 32 g ai/ha
  Rice, Water Seeded plant response rating: 0
[1]; 64 g ai/ha
  Rice, Water Seeded plant response rating: 0
[1]; 125 g ai/ha
  Rice, Water Seeded plant response rating: 0
[1]; 250 g ai/ha
  Rice, Water Seeded plant response rating: 0
[1]; 16 g ai/ha
  Plant response rating, Rice, Water Seeded: 0
[2]; 32 g ai/ha
  Sedge, Umbrella plant response rating: 0
[2]; 64 g ai/ha
  Sedge, Umbrella plant response rating: 0
[2]; 125 g ai/ha
  Sedge, Umbrella plant response rating: 40
[2]; 250 g ai/ha
  Sedge, Umbrella plant response rating: 70
[2]; 16 g ai/ha
  Plant response rating, Sedge, Umbrella: 0
[3]; 32 g ai/ha
  Sprangletop, Brdd. plant response rating: 0
[3]; 64 g ai/ha
  Sprangletop, Brdd. plant response rating: 0
[3]; 125 g ai/ha
  Sprangletop, Brdd. plant response rating: 30
[3]; 250 g ai/ha
  Sprangletop, Brdd. plant response rating: 30
[3]; 16 g ai/ha
  Plant response rating, Sprangletop, Brdd.: 0
[4]; 32 g ai/ha
  Barnyardgrass plant response rating: 0
[4]; 64 g ai/ha
  Barnyardgrass plant response rating: 0
[4]; 125 g ai/ha
  Barnyardgrass plant response rating: 40
[4]; 250 g ai/ha
  Barnyardgrass plant response rating: 40
[4]; 16 g ai/ha
  Plant response rating, Barnyardgrass: 0
[5]; 32 g ai/ha
  Ducksalad plant response rating: 100
[5]; 64 g ai/ha
  Ducksalad plant response rating: 100
[5]; 125 g ai/ha
  Ducksalad plant response rating: 100
[5]; 250 g ai/ha
  Ducksalad plant response rating: 100
[5]; 16 g ai/ha
  Plant response rating, Ducksalad: 85
[6]; 32 g ai/ha
  Junglerice plant response rating: 0
[6]; 64 g ai/ha
  Junglerice plant response rating: 0
[6]; 125 g ai/ha
  Junglerice plant response rating: 30
[6]; 250 g ai/ha
  Junglerice plant response rating: 65
[6]; 16 g ai/ha
  Plant response rating, Junglerice: 0
[7]; 32 g ai/ha
  Flatsedge, Rice plant response rating: 0
[7]; 64 g ai/ha
  Flatsedge, Rice plant response rating: 30
[7]; 125 g ai/ha
  Flatsedge, Rice plant response rating: 60
[7]; 250 g ai/ha
  Flatsedge, Rice plant response rating: 60
[7]; 16 g ai/ha
  Plant response rating, Flatsedge, Rice: 0
[8]; 32 g ai/ha
  Watergrass, Early plant response rating: 0
[8]; 64 g ai/ha
  Watergrass, Early plant response rating: 0
[8]; 125 g ai/ha
  Watergrass, Early plant response rating: 0
[8]; 250 g ai/ha
  Watergrass, Early plant response rating: 0
[8]; 16 g ai/ha
  Plant response rating, Watergrass, Early: 0
[9]; 32 g ai/ha
  Watergrass, Late plant response rating: 0
[9]; 64 g ai/ha
  Watergrass, Late plant response rating: 0
[9]; 125 g ai/ha
  Watergrass, Late plant response rating: 0
[9]; 250 g ai/ha
  Watergrass, Late plant response rating: 0
[9]; 16 g ai/ha
  Plant response rating, Watergrass, Late: 0
[10]; 32 g ai/ha
  Rice, Transplanted plant response rating: 0
[10]; 64 g ai/ha
  Rice, Transplanted plant response rating: 0
[10]; 125 g ai/ha
  Rice, Transplanted plant response rating: 0
[10]; 250 g ai/ha
  Rice, Transplanted plant response rating: 0
[10]; 16 g ai/ha
  Plant response rating, Rice, Transplanted: 0
[11]; 32 g ai/ha
  Redstem plant response rating: 0
[11]; 64 g ai/ha
  Redstem plant response rating: 0
[11]; 125 g ai/ha
  Redstem plant response rating: 0
[11]; 250 g ai/ha
  Redstem plant response rating: 85
[11]; 16 g ai/ha
  Plant response rating, Redstem: 0
[12]; [18]
  Plant response rating, Pigweed: 90
[12]; [19]
  Plant response rating, Pigweed: 90
[12]; [20]
  Plant response rating, Pigweed: 10
[12]; [21]
  Plant response rating, Pigweed: 75
[13]; [18]
  Plant response rating, Crabgrass: 5
[13]; [19]
  Plant response rating, Crabgrass: 5
[13]; [20]
  Plant response rating, Crabgrass: 0
[13]; [21]
  Plant response rating, Crabgrass: 30
[14]; [18]
  Plant response rating, Barnyardgrass: 0
[14]; [19]
  Plant response rating, Barnyardgrass: 0
[14]; [20]
  Plant response rating, Barnyardgrass: 0
[14]; [21]
  Plant response rating, Barnyardgrass: 0
[15]; [18]
  Plant response rating, Morningglory: 50
[15]; [19]
  Plant response rating, Morningglory: 60
[15]; [20]
  Plant response rating, Morningglory: 0
[15]; [21]
  Plant response rating, Morningglory: 0
[16]; [18]
  Plant response rating, Velvetleaf: 65
[16]; [19]
  Plant response rating, Velvetleaf: 75
[16]; [20]
  Plant response rating, Velvetleaf: 10
[16]; [21]
  Plant response rating, Velvetleaf: 40
[17]; [18]
  Plant response rating, Foxtail, Giant: 0
[17]; [19]
  Plant response rating, Foxtail, Giant: 0
[17]; [20]
  Plant response rating, Foxtail, Giant: 0
[17]; [21]
  Plant response rating, Foxtail, Giant: 30
